Measured values reported in patent US12077503B2, “Substituted cyclic amides and their use as herbicides” (FMC CORPORATION, priority 2015, dated 2024).

What was measured:
Assay in all cases: Test D preemergence
Assay type in all cases: in vivo
Settings in all cases: scale 0 to 100
[1] = test system: bromegrass, downy (downy bromegrass, Bromus tectorum)
Procedure, shortened: (§1)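 Visual rating, 0 = no effect, 100 = complete control, versus controls ~21 d after treatment. Preemergence application to seeds planted in silt loam; compound in non-phytotoxic solvent mix with surfactant; controlled growth environment.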

[2] = test system: mustard, wild (wild mustard, Sinapis arvensis)
Procedure, shortened: as §1

[3] = test system: foxtail, green (green foxtail, Setaria viridis)
Procedure, shortened: as §1

[4] = test system: wheat, winter (winter wheat, Triticum aestivum)
Procedure, shortened: as §1

[5] = test system: oat, wild (wild oat, Avena fatua)
Procedure, shortened: as §1

[6] = test system: chickweed (common chickweed, Stellaria media)
Procedure, shortened: as §1

[7] = test system: Russian thistle (Salsola kali)
Procedure, shortened: as §1

[8] = test system: barley, winter (winter barley Hordeum vulgare)
Procedure, shortened: as §1

[9] = test system: windgrass (Apera spica-venti)
Procedure, shortened: as §1

[10] = test system: canarygrass (littleseed canarygrass, Phalaris minor)
Procedure, shortened: as §1

[11] = test system: lambsquarters (Chenopodium album)
Procedure, shortened: as §1

[12] = test system: blackgrass (Alopecurus myosuroides)
Procedure, shortened: as §1

[13] = test system: bluegrass (annual bluegrass, Poa annua)
Procedure, shortened: as §1

[14] = test system: buckwheat, wild (wild buckwheat, Polygonum convolvulus)
Procedure, shortened: as §1

[15] = test system: field violet (Viola arvensis)
Procedure, shortened: as §1

[16] = test system: wheat, spring (spring wheat, Triticum aestivum)
Procedure, shortened: as §1

[17] = test system: Galium (catchweed bedstraw, Galium aparine)
Procedure, shortened: as §1

[18] = test system: radish, wild (wild radish, Raphanus raphanistrum)
Procedure, shortened: as §1

[19] = test system: chamomile (scentless chamomile, Matricaria inodora)
Procedure, shortened: as §1

[20] = test system: deadnettle (henbit deadnettle, Lamium amplexicaule)
Procedure, shortened: as §1

[21] = test system: oilseed rape (Brassica napus)
Procedure, shortened: as §1

[22] = test system: ryegrass, Italian (Italian ryegrass, Lolium multiflorum)
Procedure, shortened: as §1

Structure (SMILES): CN1CC(c2cccc(C(F)(F)F)c2)C(C(=O)Nc2ccccc2S(C)(=O)=O)C1=O (centres unmarked) [Compound 637]
- Plant response rating: Bromegrass, Downy ([1]; 31 g ai/ha): 0
- Plant response rating: Bromegrass, Downy ([1]; 62 g ai/ha): 10
- Plant response rating: Bromegrass, Downy ([1]; 125 g ai/ha): 25
- Plant response rating: Bromegrass, Downy ([1]; 250 g ai/ha): 40
- Plant response rating: Mustard, Wild ([2]; 31 g ai/ha): 5
- Plant response rating: Mustard, Wild ([2]; 62 g ai/ha): 5
- Plant response rating: Mustard, Wild ([2]; 125 g ai/ha): 15
- Plant response rating: Mustard, Wild ([2]; 250 g ai/ha): 15
- Plant response rating: Foxtail, Green ([3]; 31 g ai/ha): 75
- Plant response rating: Foxtail, Green ([3]; 62 g ai/ha): 80
- Plant response rating: Foxtail, Green ([3]; 125 g ai/ha): 95
- Plant response rating: Foxtail, Green ([3]; 250 g ai/ha): 100
- Plant response rating: Wheat, Winter ([4]; 31 g ai/ha): 5
- Plant response rating: Wheat, Winter ([4]; 62 g ai/ha): 40
- Plant response rating: Wheat, Winter ([4]; 125 g ai/ha): 60
- Plant response rating: Wheat, Winter ([4]; 250 g ai/ha): 75
- Plant response rating: Oat, Wild ([5]; 31 g ai/ha): 20
- Plant response rating: Oat, Wild ([5]; 62 g ai/ha): 30
- Plant response rating: Oat, Wild ([5]; 125 g ai/ha): 75
- Plant response rating: Oat, Wild ([5]; 250 g ai/ha): 85
- Plant response rating: Chickweed ([6]; 31 g ai/ha): 0
- Plant response rating: Chickweed ([6]; 62 g ai/ha): 5
- Plant response rating: Chickweed ([6]; 125 g ai/ha): 65
- Plant response rating: Chickweed ([6]; 250 g ai/ha): 75
- Plant response rating: Russian Thistle ([7]; 31 g ai/ha): 0
- Plant response rating: Russian Thistle ([7]; 62 g ai/ha): 0
- Plant response rating: Russian Thistle ([7]; 125 g ai/ha): 10
- Plant response rating: Russian Thistle ([7]; 250 g ai/ha): 50
- Plant response rating: Barley, Winter ([8]; 31 g ai/ha): 0
- Plant response rating: Barley, Winter ([8]; 62 g ai/ha): 0
- Plant response rating: Barley, Winter ([8]; 125 g ai/ha): 50
- Plant response rating: Barley, Winter ([8]; 250 g ai/ha): 60
- Plant response rating: Windgrass ([9]; 31 g ai/ha): 10
- Plant response rating: Windgrass ([9]; 62 g ai/ha): 25
- Plant response rating: Windgrass ([9]; 125 g ai/ha): 85
- Plant response rating: Windgrass ([9]; 250 g ai/ha): 95
- Plant response rating: Canarygrass ([10]; 31 g ai/ha): 0
- Plant response rating: Canarygrass ([10]; 62 g ai/ha): 0
- Plant response rating: Canarygrass ([10]; 125 g ai/ha): 50
- Plant response rating: Canarygrass ([10]; 250 g ai/ha): 70
- Plant response rating: Lambsquarters ([11]; 31 g ai/ha): 50
- Plant response rating: Lambsquarters ([11]; 62 g ai/ha): 60
- Plant response rating: Lambsquarters ([11]; 125 g ai/ha): 40
- Plant response rating: Lambsquarters ([11]; 250 g ai/ha): 75
- Plant response rating: Blackgrass ([12]; 31 g ai/ha): 10
- Plant response rating: Blackgrass ([12]; 62 g ai/ha): 10
- Plant response rating: Blackgrass ([12]; 125 g ai/ha): 45
- Plant response rating: Blackgrass ([12]; 250 g ai/ha): 50
- Plant response rating: Bluegrass ([13]; 31 g ai/ha): 5
- Plant response rating: Bluegrass ([13]; 62 g ai/ha): 25
- Plant response rating: Bluegrass ([13]; 125 g ai/ha): 75
- Plant response rating: Bluegrass ([13]; 250 g ai/ha): 100
- Plant response rating: Buckwheat, Wild ([14]; 31 g ai/ha): 0
- Plant response rating: Buckwheat, Wild ([14]; 62 g ai/ha): 10
- Plant response rating: Buckwheat, Wild ([14]; 125 g ai/ha): 15
- Plant response rating: Buckwheat, Wild ([14]; 250 g ai/ha): 80
- Plant response rating: Field Violet ([15]; 31 g ai/ha): 0
- Plant response rating: Field Violet ([15]; 62 g ai/ha): 0
- Plant response rating: Field Violet ([15]; 125 g ai/ha): 0
- Plant response rating: Field Violet ([15]; 250 g ai/ha): 0
- Plant response rating: Wheat, Spring ([16]; 31 g ai/ha): 5
- Plant response rating: Wheat, Spring ([16]; 62 g ai/ha): 30
- Plant response rating: Wheat, Spring ([16]; 125 g ai/ha): 80
- Plant response rating: Wheat, Spring ([16]; 250 g ai/ha): 70
- Plant response rating: Galium ([17]; 31 g ai/ha): 0
- Plant response rating: Galium ([17]; 62 g ai/ha): 20
- Plant response rating: Galium ([17]; 125 g ai/ha): 30
- Plant response rating: Galium ([17]; 250 g ai/ha): 10
- Plant response rating: Radish, Wild ([18]; 62 g ai/ha): 20
- Plant response rating: Radish, Wild ([18]; 125 g ai/ha): 20
- Plant response rating: Radish, Wild ([18]; 250 g ai/ha): 90
- Plant response rating: Chamomile ([19]; 31 g ai/ha): 0
- Plant response rating: Chamomile ([19]; 125 g ai/ha): 90
- Plant response rating: Chamomile ([19]; 250 g ai/ha): 90
- Plant response rating: Deadnettle ([20]; 31 g ai/ha): 0
- Plant response rating: Deadnettle ([20]; 62 g ai/ha): 0
- Plant response rating: Deadnettle ([20]; 125 g ai/ha): 25
- Plant response rating: Deadnettle ([20]; 250 g ai/ha): 65
- Plant response rating: Oilseed Rape ([21]; 31 g ai/ha): 0
- Plant response rating: Oilseed Rape ([21]; 62 g ai/ha): 40
- Plant response rating: Oilseed Rape ([21]; 125 g ai/ha): 40
- Plant response rating: Oilseed Rape ([21]; 250 g ai/ha): 65
- Plant response rating: Ryegrass, Italian ([22]; 31 g ai/ha): 0
- Plant response rating: Ryegrass, Italian ([22]; 62 g ai/ha): 0
- Plant response rating: Ryegrass, Italian ([22]; 125 g ai/ha): 20
- Plant response rating: Ryegrass, Italian ([22]; 250 g ai/ha): 20
